Reference: doi:10.1101/2025.07.09.663820v1 (biorxiv, 2025)
Positions count from the first letter of the chain named.

Assays:
Test in all cases: isothermal titration calorimetry
Type in all cases: binding
MtCERK1 = biological target: T1, MtCERK1 (Medicago truncatula, UniProt G7J6P5); settings: read-out: affinity; ectodomain
T1 sequence (G7J6P5 30-232): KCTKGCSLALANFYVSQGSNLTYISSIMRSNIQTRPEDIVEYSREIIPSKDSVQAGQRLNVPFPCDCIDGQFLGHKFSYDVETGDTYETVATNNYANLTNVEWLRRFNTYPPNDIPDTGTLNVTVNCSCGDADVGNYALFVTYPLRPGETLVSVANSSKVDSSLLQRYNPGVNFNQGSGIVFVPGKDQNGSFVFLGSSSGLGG

LYR4 = biological target: T2, LYR4 (Medicago truncatula, UniProt G7K7K0); settings: ectodomain
T2 sequence (G7K7K0 24-242): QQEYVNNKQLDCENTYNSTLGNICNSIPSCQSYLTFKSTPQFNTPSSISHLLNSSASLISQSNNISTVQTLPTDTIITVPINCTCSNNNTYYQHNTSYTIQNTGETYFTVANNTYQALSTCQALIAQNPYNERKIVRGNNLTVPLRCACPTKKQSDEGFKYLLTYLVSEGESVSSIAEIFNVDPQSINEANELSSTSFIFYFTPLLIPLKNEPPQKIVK

CERK6 = biological target: T3, CERK6 (Lotus japonicus, UniProt D3KTZ6); settings: read-out: affinity; ectodomain; crystal structure: CO5 in LysM1 and LysM2
T3 sequence (D3KTZ6 26-223): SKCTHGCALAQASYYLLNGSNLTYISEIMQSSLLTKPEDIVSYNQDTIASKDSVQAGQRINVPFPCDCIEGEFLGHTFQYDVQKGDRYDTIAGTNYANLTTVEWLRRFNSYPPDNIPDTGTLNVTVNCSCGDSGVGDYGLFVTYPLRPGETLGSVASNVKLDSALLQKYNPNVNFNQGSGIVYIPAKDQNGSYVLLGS

CHIP13 [1] = biological target: T4, CHIP13 (Lotus japonicus, UniProt D3KU00); settings: ectodomain
T4 sequence (D3KU00 33-253): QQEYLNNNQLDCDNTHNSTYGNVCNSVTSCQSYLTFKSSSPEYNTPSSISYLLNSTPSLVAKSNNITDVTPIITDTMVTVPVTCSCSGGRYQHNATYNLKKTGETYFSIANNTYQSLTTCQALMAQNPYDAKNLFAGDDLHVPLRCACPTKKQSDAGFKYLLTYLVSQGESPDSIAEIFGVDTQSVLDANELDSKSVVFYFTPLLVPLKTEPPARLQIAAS

CHIP13 [2] = biological target: T5, CHIP13 (Lotus japonicus, UniProt D3KU00, Y232A/F233A); settings: ectodomain variant
T5 sequence (D3KU00 33-253 Y232A/F233A): T4 sequence (D3KU00 33-253) with Y200A, F201A

Row | Kd (MtCERK1) | Kd (CERK6) | Kd (CHIP13 [1]) | Compound | Kd (LYR4) | Kd (CHIP13 [2]) | Kd (CHIP13 [1]; crystal structure at 1.35 Å: LysM2, LysM3 and bridge domain site)
1 | 729 µM | 2800 µM | 1270 µM | CC(=O)N[C@H]1[C@H](O[C@H]2[C@H](O)[C@@H](NC(C)=O)[C@H](O[C@H]3[C@H](O)[C@@H](NC(C)=O)C(O)O[C@@H]3CO)O[C@@H]2CO)O[C@H](CO)[C@@H](O[C@@H]2O[C@H](CO)[C@@H](O[C@@H]3O[C@H](CO)[C@@H](O)[C@H](O)[C@H]3NC(C)=O)[C@H](O)[C@H]2NC(C)=O)[C@@H]1O (stereo partly shown) [CO5, penta-N-acetyl-chitopentaose] | 96 µM | – | –
2 | – | – | – | CC(=O)N[C@H]1[C@H](O[C@H]2[C@H](O)[C@@H](NC(C)=O)[C@H](O[C@H]3[C@H](O)[C@@H](NC(C)=O)[C@H](O[C@H]4[C@H](O)[C@@H](NC(C)=O)C(O)O[C@@H]4CO)O[C@@H]3CO)O[C@@H]2CO)O[C@H](CO)[C@@H](O[C@@H]2O[C@H](CO)[C@@H](O[C@@H]3O[C@H](CO)[C@@H](O[C@@H]4O[C@H](CO)[C@@H](O[C@@H]5O[C@H](CO)[C@@H](O)[C@H](O)[C@H]5NC(C)=O)[C@H](O)[C@H]4NC(C)=O)[C@H](O)[C@H]3NC(C)=O)[C@H](O)[C@H]2NC(C)=O)[C@@H]1O (stereo partly shown) [CO8, octa-N-acetyl-chitooctaose] | 1.92 µM | 107 ± 80 µM | 0.9 µM
